Experimental data as given in US20150113683A1, “METHODS FOR PLANT TRANSFORMATION USING SPECTINOMYCIN SELECTION” (Monsanto Technology LLC, priority 2007, published 2015).
“And” between values parts separate entries of the source, which are not always exact repeats. Equal entries are not always repeated.

Experiments:
[1] = test system: 3 months stored dry soybean explants; assay: Stored dry soybean explants, spectinomycin, pre-culture: TF; type: cell-based; conditions: nystatin 50 ppm and thiabendazole 10 ppm dissolved in DMSO added together to INO co-culture media
soybean explants [2] = assay: TDZ during inoculation/co-cultivation: GFP-positive bud/shoot development, glyphosate selection; type: cell-based, soybean (Glycine max); conditions: for # Explants with GFP+ buds/shoots: 200 explants examined
soybean explants [3] = assay: TDZ in inoculation/co-culture medium: shoots harvested and transformed rooted shoots, glyphosate selection; type: cell-based, soybean (Glycine max)
soybean explants [4] = assay: BAP or TDZ for 4 days after co-cultivation: GFP-positive bud development, dicamba selection; type: cell-based, soybean (Glycine max); conditions: for # Explants w/ GFP+ buds / % Explants w/ GFP+ buds: 0.01 mg/L dicamba selection, 24 DAI; for effect on final transformation frequencies (TFs): addition of cytokinin with dicamba selection
soybean explants [5] = assay: TDZ during inoculation and co-culture: development of GUS-positive buds; type: cell-based, soybean (Glycine max); conditions: for # Explants w/ GUS+ buds (13 DAI): 96 explants assayed
soybean explants [6] = assay: BAP during co-culture and post co-culture delay: rooted plants and TF, spectinomycin selection; type: cell-based, soybean (Glycine max); conditions: 150 mg/L spectinomycin selection
Description: Soybean explants were inoculated and co-cultured with Agrobacterium harboring pMON96999 (FIG. 2). The inoculation and co-culture medium were supplemented with 0, 1, 2, 3, 4 or 5 mg/L BAP. […] The explants were then transferred onto selection medium (the same as the delay medium but containing 150 mg/L spectinomycin) for shoot induction and selection. […] To determine how many explants could develop transformed shoots without BAP treatment, explant tissues were assayed for GUS activity at 42 days after inoculation. […] Most of them were axillary, and some of them were apparently chimeric. The explants treated with BAP had much less or non-elongated primary shoots, and more de novo shoots. Many of the shoots elongated on the selection medium and were harvested to induce roots on the root induction medium also containing 150 mg/L spectinomycin as in protocol “A”.

dry soybean explants = assay: Transformation frequency of dry soybean explants using glyphosate or spectinomycin as selective agent; type: cell-based; conditions: Glyphosate 50 uM in regeneration medium; dry soybean explants
[7] = TDZ 0.5 mg/L in inoculation and co-cultivation medium
[8] = TDZ 1.0 mg/L in inoculation and co-cultivation medium
[9] = TDZ 1.5 mg/L in inoculation and co-cultivation medium
[10] = TDZ 2.0 mg/L in inoculation and co-cultivation medium
[11] = TDZ 3.0 mg/L in inoculation and co-cultivation medium
[12] = TDZ 1 mg/L for inoculation/co-culture, glyphosate selection
[13] = TDZ 2 mg/L for inoculation/co-culture, glyphosate selection
[14] = TDZ 3 mg/L for inoculation/co-culture, glyphosate selection
[15] = 1 mg/L for 4 days after co-cultivation
[16] = 2 mg/L for 4 days after co-cultivation
[17] = TDZ 0.5 mg/L for inoculation & co-culture
[18] = TDZ 1.0 mg/L for inoculation & co-culture
[19] = TDZ 2.0 mg/L for inoculation & co-culture
[20] = BAP 1 mg/L in co-culture & 4-d post co-culture delay medium
[21] = BAP 2 mg/L in co-culture & 4-d post co-culture delay medium
[22] = BAP 3 mg/L in co-culture & 4-d post co-culture delay medium
[23] = BAP 4 mg/L in co-culture & 4-d post co-culture delay medium
[24] = BAP 5 mg/L in co-culture & 4-d post co-culture delay medium

## c1ccc2[nH]c(-c3cscn3)nc2c1 [thiabendazole]
[1]
  health of explants: improved the health of explants

## O=C(Nc1ccccc1)Nc1cnns1 [TDZ, thidiazuron]
Soybean explants [2]; [7]
  Frequency of explants with GFP+ buds/shoots: 18%
  # Explants with GFP+ buds/shoots: 36
Soybean explants [2]; [8]
  Frequency of explants with GFP+ buds/shoots: 24%
  # Explants with GFP+ buds/shoots: 48
Soybean explants [2]; [9]
  Frequency of explants with GFP+ buds/shoots: 25%
  # Explants with GFP+ buds/shoots: 50
Soybean explants [2]; [10]
  Frequency of explants with GFP+ buds/shoots: 30%
  # Explants with GFP+ buds/shoots: 60
Soybean explants [2]; [11]
  Frequency of explants with GFP+ buds/shoots: 32%
  # Explants with GFP+ buds/shoots: 64
Soybean explants [3]; TDZ 0.5 mg/L for inoculation/co-culture, glyphosate selection
  % Transformed rooted shoots: 1.1% and 1.4% and 4.3%
Soybean explants [3]; [12]
  % Transformed rooted shoots: 1.3% and 1.6% and 0.5% and 3.2% and 1%
  Shoots harvested, % Shooting Frequency: 4.9% and 7% and 3.5% and 13% and 6.8%
Soybean explants [3]; [13]
  % Transformed rooted shoots: 0.1% and 1.3% and 0.9% and 0.5%
  Shoots harvested, % Shooting Frequency: 1.4% and 4.9% and 5.1% and 6.7% and 1.9%
Soybean explants [3]; [14]
  % Transformed rooted shoots: 0.6% and 0.7%
  Rooted shoots, Total #: 5 and 8
  Shoots harvested, % Shooting Frequency: 4.7% and 1.9%
  Shoots harvested, Total #: 40 and 20
Soybean explants [4]; [15]
  # Explants w/ GFP+ buds: 71
  % Explants w/ GFP+ buds: 18.3%
Soybean explants [4]; [16]
  # Explants w/ GFP+ buds: 53
  % Explants w/ GFP+ buds: 13.8%
Soybean explants [4]
  effect on final transformation frequencies (TFs): no visible effect
Soybean explants [5]; [17]
  % Explants with GUS+ buds (13 DAI): 18.8%
  # Explants w/ GUS+ buds (13 DAI): 18
Soybean explants [5]; [18]
  % Explants with GUS+ buds (13 DAI): 35.4%
  # Explants w/ GUS+ buds (13 DAI): 34
Soybean explants [5]; [19]
  % Explants with GUS+ buds (13 DAI): 50.0%
  # Explants w/ GUS+ buds (13 DAI): 48

## c1ccc(CNc2ncnc3nc[nH]c23)cc1 [BAP, 6-Benzylaminopurine]
Soybean explants [4]; [15]
  # Explants w/ GFP+ buds: 12
  % Explants w/ GFP+ buds: 3.7%
Soybean explants [4]; [16]
  # Explants w/ GFP+ buds: 11
  % Explants w/ GFP+ buds: 3.3%
Soybean explants [4]
  effect on final transformation frequencies (TFs): no visible effect
Soybean explants [6]; [20]
  # Rooted plants: 103
  % TF: 26.1%
Soybean explants [6]; [21]
  # Rooted plants: 94
  % TF: 27.1%
Soybean explants [6]; [22]
  # Rooted plants: 87
  % TF: 24.9%
Soybean explants [6]; [23]
  # Rooted plants: 132
  % TF: 30.3%
Soybean explants [6]; [24]
  # Rooted plants: 116
  % TF: 26.6%

## C[C@@H]1[C@H](O)[C@@H](C)/C=C/C=C/CC/C=C/C=C/C=C/C=C/C(O[C@H]2O[C@H](C)[C@@H](O)[C@H](N)[C@@H]2O)CC2O[C@](O)(CC(O)C(O)CCC(O)CC(O)CC(O)CC(=O)O[C@H]1C)CC(O)C2C(=O)O (stereo partly shown) [nystatin]
[1]
  health of explants: improved the health of explants

## O=C(O)CNCP(=O)(O)O [Glyphosate, glyphosate]
Soybean explants [3]; comparable experiments utilizing glyphosate as selective agent
  transformation frequency: ~2%
Dry soybean explants
  % TF: 2.00%
